Measured values from PubChem BioAssay (NCI).
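Five concentrations, 48 hours, 96-well plates. At the GI50, growth is halved. At the TGI there is no net growth.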

Key:
Experiment in all cases: NCI anticancer screen, dose series, 48 h
UACC-62 melanoma = test system: UACC-62 melanoma
SF-539 CNS = test system: SF-539 CNS
MOLT-4 leukemia = test system: MOLT-4 leukemia
RPMI-8226 leukemia = test system: RPMI-8226 leukemia
SR leukemia = test system: SR leukemia
BT-549 breast = test system: BT-549 breast
SK-MEL-28 melanoma = test system: SK-MEL-28 melanoma
EKVX NSCLC = test system: EKVX NSCLC
MCF7 breast = test system: MCF7 breast
ACHN renal = test system: ACHN renal
COLO 205 colon = test system: COLO 205 colon
SF-268 CNS = test system: SF-268 CNS
MALME-3M melanoma = test system: MALME-3M melanoma
K-562 leukemia = test system: K-562 leukemia
T-47D breast = test system: T-47D breast
HOP-62 NSCLC = test system: HOP-62 NSCLC
CAKI-1 renal = test system: CAKI-1 renal
SF-295 CNS = test system: SF-295 CNS
HCT-116 colon = test system: HCT-116 colon
HL-60(TB) leukemia = test system: HL-60(TB) leukemia
SNB-19 CNS = test system: SNB-19 CNS
SK-OV-3 ovarian = test system: SK-OV-3 ovarian
TK-10 renal = test system: TK-10 renal
A549 NSCLC = test system: A549 NSCLC
OVCAR-4 ovarian = test system: OVCAR-4 ovarian
SNB-75 CNS = test system: SNB-75 CNS
DU-145 prostate = test system: DU-145 prostate

Oc1ccc(CSc2nnc(-c3ccc(Oc4ccccc4)cc3)o2)c2cccnc12
GI50 (UACC-62 melanoma): 2.41 µM | TGI (UACC-62 melanoma): > 100 µM | GI50 (SF-539 CNS): 0.689 µM | TGI (SF-539 CNS): 55.5 µM | GI50 (MOLT-4 leukemia): 1.28 µM | TGI (MOLT-4 leukemia): > 100 µM | GI50 (RPMI-8226 leukemia): 0.458 µM | TGI (RPMI-8226 leukemia): > 100 µM | GI50 (SR leukemia): 0.37 µM | TGI (SR leukemia): > 100 µM | GI50 (BT-549 breast): 0.905 µM | TGI (BT-549 breast): > 100 µM | GI50 (SK-MEL-28 melanoma): 4.8 µM | TGI (SK-MEL-28 melanoma): > 100 µM | GI50 (EKVX NSCLC): 0.515 µM | TGI (EKVX NSCLC): > 100 µM | GI50 (MCF7 breast): 0.497 µM | TGI (MCF7 breast): > 100 µM | GI50 (ACHN renal): 0.565 µM | TGI (ACHN renal): 2.14 µM | GI50 (COLO 205 colon): > 100 µM | TGI (COLO 205 colon): > 100 µM | GI50 (SF-268 CNS): 0.659 µM | TGI (SF-268 CNS): > 100 µM | GI50 (MALME-3M melanoma): 4.54 µM | TGI (MALME-3M melanoma): > 100 µM | GI50 (K-562 leukemia): 0.368 µM | TGI (K-562 leukemia): > 100 µM | GI50 (T-47D breast): 2.17 µM | TGI (T-47D breast): 9.12 µM | GI50 (HOP-62 NSCLC): 0.682 µM | TGI (HOP-62 NSCLC): 9.85 µM | GI50 (CAKI-1 renal): 1.88 µM | TGI (CAKI-1 renal): > 100 µM | GI50 (SF-295 CNS): 0.877 µM | TGI (SF-295 CNS): 7.49 µM | GI50 (HCT-116 colon): 0.42 µM | TGI (HCT-116 colon): 4.4 µM | GI50 (HL-60(TB) leukemia): 0.668 µM | TGI (HL-60(TB) leukemia): > 100 µM | GI50 (SNB-19 CNS): 0.421 µM | TGI (SNB-19 CNS): > 100 µM | GI50 (SK-OV-3 ovarian): 1.92 µM | TGI (SK-OV-3 ovarian): 21.8 µM | GI50 (TK-10 renal): 2.45 µM | TGI (TK-10 renal): 69.8 µM | GI50 (A549 NSCLC): 1.68 µM | TGI (A549 NSCLC): > 100 µM | GI50 (OVCAR-4 ovarian): 1.77 µM | TGI (OVCAR-4 ovarian): 8.01 µM | GI50 (SNB-75 CNS): 0.595 µM | TGI (SNB-75 CNS): 3.92 µM | GI50 (DU-145 prostate): 3.27 µM | TGI (DU-145 prostate): > 100 µM
